# Laboratory results published in publication PMC13266999, “Designing Antibiotics with Inherent Resistance to Efflux as a Strategy to Revive Discovery against Multidrug-Resistant Pathogens” (Journal of Medicinal Chemistry, 2026).
# Assays:
# [1] = system: S. aureus; experiment: Serial passaging, MIC of adapted strains; type: cell-based; conditions: Staphylococcus aureus
# Procedure: MICs were performed on the first and 10th passage.
# [2] = system: S. aureus; experiment: Mutation frequency and agar MIC; type: cell-based
# Procedure: (§1) Mutation frequencies were performed on solid media at supra-inhibitory concentrations. First, the agar MIC was performed to account for any issues in solubility of compounds in solid media. Agar plates were prepared with 2-fold dilutions of compound.
# (§2) For the mutation frequency assay, bacteria from an overnight culture were grown to mid exponential phase in liquid broth, then 100 μL was spread onto an agar plate containing compound at concentrations above the agar MIC. A Miles-Misra was also conducted on an antibiotic-free agar plate to determine the CFU/mL of the starting population. […] The mutation frequency was calculated by dividing the number of colonies on supra inhibitory con-centration plates by the starting population.
# [3] = system: A. baumannii; experiment: Mutation frequency and agar MIC; type: cell-based; conditions: A118
# Procedure: as §1, §2
# [4] = system: E. coli; experiment: Mutation frequency and agar MIC; type: cell-based
# Procedure: as §1, §2
# [5] = system: S. aureus; experiment: MIC (microbroth dilution); type: cell-based, Staphylococcus aureus
# How it was run: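 Broth microdilution MICs, defined as lowest compound level without visible growth (OD600 read), on bacteria grown overnight to stationary phase then diluted. Twofold compound dilutions; some wells also received PMBN, final 30 μg/mL, to permeabilize the outer membrane.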
# [6] = Pharmacokinetics; conditions: male, ICR (CD-1), mouse
# Procedure: Pharmacokinetic studies were performed in male ICR (CD-1) mice obtained from Charles River, UK. […] Blood samples were collected from the caudal vein into anticoagulant-treated capillaries at predetermined time points up to 8 h, with terminal cardiac puncture at 8 h. Plasma samples were stored at −80 °C until analysis. […] A compound-specific LC-MS/MS method was developed for each test article using matrix-matched calibrators following protein precipitation of samples.
smiles,measurement,setting,value
"C[C@H]1COc2c(N3CCN(C)CC3)c(F)cc3c(=O)c(C(=O)O)cn1c23 [Levofloxacin, (S)-9-Fluoro-3-methyl-10-(4-methylpiperazin-1-yl)-7-oxo-2,3-dihydro-7H-[1,4]oxazino[2,3,4-ij]quinoline-6-carboxylic acid, reference compound]",MIC,[1]; 1199B WT,1 µg/mL
same,MIC,[1]; 1199B adapted to 4 x MIC of Compound 7,4 µg/mL
same,MIC,[1]; 1199B adapted to 4 x MIC of Compound 46,2 µg/mL
same,MIC,[1]; 1199B adapted to 4 x MIC of Compound 50,4 µg/mL
same,MIC,[1]; 1199B adapted to 4 x MIC of Compound 51,2 µg/mL
same,MIC,[1]; 1199 WT,0.125 µg/mL
same,MIC,[1]; 1199 adapted to 4 x MIC of Compound 7,1 µg/mL
same,MIC,[1]; 1199 adapted to 4 x MIC of Compound 46,0.25 µg/mL
same,MIC,[1]; 1199 adapted to 4 x MIC of Compound 50,1 µg/mL
same,MIC,[1]; 1199 adapted to 4 x MIC of Compound 51,0.25 µg/mL
same,MIC,"[1]; NCTC13616, NCTC 13616 WT",8 µg/mL
same,MIC,"[1]; NCTC13616, NCTC 13616 adapted to 4 x MIC of Compound 7",> 32 µg/mL
same,MIC,"[1]; NCTC13616, NCTC 13616 adapted to 4 x MIC of Compound 46",16 µg/mL
same,MIC,"[1]; NCTC13616, NCTC 13616 adapted to 4 x MIC of Compound 50",16 µg/mL
same,MIC,"[1]; NCTC13616, NCTC 13616 adapted to 4 x MIC of Compound 51",32 µg/mL
same,Agar MIC,[2]; ATCC 9144,0.12 µg/mL
same,Agar MIC,[2]; NCTC 13616,4 µg/mL
same,Agar MIC,[3],0.06 µg/mL
same,Agar MIC,[4]; NCTC 12241,0.03 µg/mL
same,Agar MIC,[4]; NCTC 12923,0.0078 µg/mL
same,MIC,[5]; ATCC 9144,0.25 µg/mL
same,MIC,[5]; SA-1199,0.25 µg/mL
same,MIC,[5]; SA-1199B (NorA-overexpressing),2 µg/mL
same,MIC,"[5]; Staphylococcus aureus, 1199, + 4% albumin, read-out: MIC",0.25 µg/mL
same,MIC,"[5]; Staphylococcus aureus, 1199b, + 4% albumin, read-out: MIC",2 µg/mL
same,MIC,"[5]; Staphylococcus aureus, ATCC9144, ATCC 9144, + 4% albumin, read-out: MIC",0.25 µg/mL
same,MIC,"[5]; Staphylococcus aureus, ATCC9144, ATCC 9144, read-out: MIC",0.125 µg/mL
same,MIC,"[5]; Staphylococcus aureus, NCTC13277, NCTC 13277, + 4% albumin, read-out: MIC",16 µg/mL
same,MIC,"[5]; Staphylococcus aureus, NCTC13277, NCTC 13277, read-out: MIC",16 µg/mL
same,MIC,"[5]; Staphylococcus aureus, NCTC13616, NCTC 13616, + 4% albumin, read-out: MIC",16 µg/mL
same,MIC,"[5]; Staphylococcus aureus, NCTC13616, NCTC 13616, read-out: MIC",16 µg/mL
same,MIC,"[5]; Staphylococcus aureus, SA-1199, read-out: MIC",0.125 µg/mL
same,MIC,"[5]; Staphylococcus aureus, SA-1199B (NorA-overexpressing)",1 µg/mL
same,half-life,"[6]; in vivo, po, 20 mg/kg",5.7 h
same,AUC(0-inf),"[6]; plasma, iv, 5 mg/kg",9170 ng·h/mL
